Laboratory results as given in ChEMBL document CHEMBL1201862, “PubChem BioAssay data set” (2004).
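Dose response: 5 concentrations. Exposure: 48 h. Format: 96-well plates. Endpoint: linear interpolation; highest concentration if not reached. GI50 = concentration required for 50% inhibition of growth.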 Activity calls are given as the source filed them. No stated cut-off is given here; in the data, active = GI50 up to about 1.1 µM and inactive = higher.

What was measured:
Test in all cases: growth of human tumour cells (NCI), 48 h
[1] = tested on: 786-0
[2] = tested on: A498
[3] = tested on: A549
[4] = tested on: ACHN
[5] = tested on: BT-549
[6] = tested on: CAKI-1
[7] = tested on: CCRF-CEM
[8] = tested on: COLO 205
[9] = tested on: DU-145
[10] = tested on: EKVX
[11] = tested on: HCC 2998
[12] = tested on: HCT-116
[13] = tested on: HCT-15
[14] = tested on: HL-60
[15] = tested on: HOP-92
[16] = tested on: HT-29
[17] = tested on: Hs-578T
[18] = tested on: IGROV-1
[19] = tested on: K562
[20] = tested on: KM12
[21] = tested on: LOX IMVI
[22] = tested on: M14
[23] = tested on: MCF7
[24] = tested on: MDA-MB-231
[25] = tested on: MDA-MB-435
[26] = tested on: MDA-N
[27] = tested on: MOLT-4
[28] = tested on: NCI-H226
[29] = tested on: NCI-H23
[30] = tested on: NCI-H460
[31] = tested on: NCI-H522
[32] = tested on: NCI/ADR-RES
[33] = tested on: OVCAR-3
[34] = tested on: OVCAR-4
[35] = tested on: OVCAR-5
[36] = tested on: OVCAR-8
[37] = tested on: PC-3
[38] = tested on: RPMI-8226
[39] = tested on: RXF 393
[40] = tested on: SF-268
[41] = tested on: SF-295
[42] = tested on: SK-MEL-28
[43] = tested on: SK-MEL-2
[44] = tested on: SK-MEL-5
[45] = tested on: SK-OV-3
[46] = tested on: SN12C
[47] = tested on: SNB-19
[48] = tested on: SNB-75
[49] = tested on: SR
[50] = tested on: SW-620
[51] = tested on: T47D
[52] = tested on: TK-10
[53] = tested on: U-251
[54] = tested on: UACC-257
[55] = tested on: UACC-62
[56] = tested on: UO-31
[57] = tested on: HOP-62
[58] = tested on: Malme-3M
[59] = tested on: SF-539

CC(=O)Nc1ccc2[nH]c(C(=O)N3CC(CCl)c4c3cc([N+](=O)[O-])c3ccccc43)cc2c1 (stereo not drawn)
GI50 [1]: 10.7 µM (inactive) | GI50 [2]: 0.863 µM (active) | GI50 [3]: 0.393 µM (active) | GI50 [4]: 5.57 µM (inactive) | GI50 [5]: 3.87 µM (inactive) | GI50 [6]: 3.93 µM (inactive) | GI50 [7]: 0.879 µM (active) | GI50 [8]: 4.98 µM (inactive) | GI50 [9]: 2.96 µM (inactive) | GI50 [10]: 5.09 µM (inactive) | GI50 [11]: 6.4 µM (inactive) | GI50 [12]: 6.41 µM (inactive) | GI50 [13]: 6.47 µM | GI50 [14]: 1.01 µM (active) | GI50 [15]: 2.5 µM (inactive) | GI50 [16]: 29.9 µM (inactive) | GI50 [17]: 4.26 µM (inactive) | GI50 [18]: 2.92 µM (inactive) | GI50 [19]: 0.601 µM (active) | GI50 [20]: 1.73 µM (inactive) | GI50 [21]: 9.2 µM (inactive) | GI50 [22]: 24.2 µM (inactive) | GI50 [23]: 5.25 µM (inactive) | GI50 [24]: > 51.4 µM (inactive) | GI50 [25]: 14.7 µM (inactive) | GI50 [26]: > 57.4 µM (inactive) | GI50 [27]: 0.889 µM (active) | GI50 [28]: 9.38 µM (inactive) | GI50 [29]: 8.57 µM (inactive) | GI50 [30]: 12.9 µM (inactive) | GI50 [31]: 1.14 µM (inactive) | GI50 [32]: 4.45 µM (inactive) | GI50 [33]: > 100 µM (inactive) | GI50 [34]: > 36.3 µM (inactive) | GI50 [35]: 13.1 µM (inactive) | GI50 [36]: 3.1 µM (inactive) | GI50 [37]: 1.2 µM (inactive) | GI50 [38]: 1.02 µM (active) | GI50 [39]: 4.74 µM (inactive) | GI50 [40]: 1.98 µM (inactive) | GI50 [41]: 7.33 µM (inactive) | GI50 [42]: > 35.6 µM (inactive) | GI50 [43]: 13.8 µM (inactive) | GI50 [44]: 5.89 µM (inactive) | GI50 [45]: 0.791 µM (active) | GI50 [46]: 7.8 µM (inactive) | GI50 [47]: > 30.2 µM (inactive) | GI50 [48]: 3.4 µM (inactive) | GI50 [49]: 0.349 µM (active) | GI50 [50]: 9.23 µM (inactive) | GI50 [51]: 2.77 µM (inactive) | GI50 [52]: 6.32 µM (inactive) | GI50 [53]: 3.48 µM (inactive) | GI50 [54]: > 100 µM (inactive) | GI50 [55]: 4.52 µM (inactive) | GI50 [56]: 0.805 µM (active)

CCOC(=O)CCC(NC(=O)Cc1ccc(Nc2nc3ccccc3nc2-c2ccccc2)cc1)C(=O)OCC (stereo not drawn)
GI50 [1]: 7.83 µM (inactive) | GI50 [2]: 37 µM (inactive) | GI50 [3]: 79.6 µM (inactive) | GI50 [4]: 41.5 µM (inactive) | GI50 [5]: 46.8 µM (inactive) | GI50 [6]: > 100 µM (inactive) | GI50 [7]: > 100 µM (inactive) | GI50 [8]: > 100 µM (inactive) | GI50 [9]: > 100 µM (inactive) | GI50 [10]: 63 µM (inactive) | GI50 [11]: > 100 µM (inactive) | GI50 [12]: > 100 µM (inactive) | GI50 [13]: > 100 µM | GI50 [14]: > 100 µM (inactive) | GI50 [57]: 6.46 µM (inactive) | GI50 [15]: 18.8 µM (inactive) | GI50 [16]: > 100 µM (inactive) | GI50 [17]: 10.2 µM (inactive) | GI50 [18]: 51.8 µM (inactive) | GI50 [19]: > 100 µM (inactive) | GI50 [20]: > 100 µM (inactive) | GI50 [21]: > 100 µM (inactive) | GI50 [22]: 65.6 µM (inactive) | GI50 [23]: > 100 µM (inactive) | GI50 [24]: 16.9 µM (inactive) | GI50 [25]: > 100 µM (inactive) | GI50 [26]: > 100 µM (inactive) | GI50 [27]: > 100 µM (inactive) | GI50 [58]: 33 µM (inactive) | GI50 [28]: 72.1 µM (inactive) | GI50 [29]: 20.7 µM (inactive) | GI50 [30]: > 100 µM (inactive) | GI50 [31]: 20.7 µM (inactive) | GI50 [32]: 50.5 µM (inactive) | GI50 [34]: 6.79 µM (inactive) | GI50 [35]: 93.8 µM (inactive) | GI50 [36]: 25.2 µM (inactive) | GI50 [37]: 17.4 µM (inactive) | GI50 [39]: 10.3 µM (inactive) | GI50 [40]: 5.26 µM (inactive) | GI50 [41]: 16.1 µM (inactive) | GI50 [59]: 20 µM (inactive) | GI50 [42]: > 100 µM (inactive) | GI50 [43]: 16.5 µM (inactive) | GI50 [44]: > 100 µM (inactive) | GI50 [45]: 22.4 µM (inactive) | GI50 [46]: > 100 µM (inactive) | GI50 [47]: 24.2 µM (inactive) | GI50 [48]: 8.79 µM (inactive) | GI50 [49]: > 100 µM (inactive) | GI50 [50]: > 100 µM (inactive) | GI50 [51]: > 100 µM (inactive) | GI50 [52]: 14 µM (inactive) | GI50 [53]: 15.1 µM (inactive) | GI50 [54]: > 100 µM (inactive) | GI50 [55]: 50.4 µM (inactive) | GI50 [56]: > 100 µM (inactive)
